From ChEMBL document CHEMBL4507317, “Data for DCP probe BAY-899” (2021)

Key:
[1] = target: Tyrosine-protein kinase Yes (Homo sapiens) (UniProt P07947); settings: Compound concentration 1000.0 nM
[2] = target: Serine/threonine-protein kinase pim-3 (Homo sapiens) (UniProt Q86V86); settings: Compound concentration 1000.0 nM
[3] = target: Cyclin-dependent kinase 11B (Homo sapiens) (UniProt P21127); settings: Compound concentration 1000.0 nM
[4] = target: Testis-specific serine/threonine-protein kinase 3 (Homo sapiens) (UniProt Q96PN8); settings: Compound concentration 1000.0 nM
[5] = target: STE20/SPS1-related proline-alanine-rich protein kinase (Homo sapiens) (UniProt Q9UEW8); settings: Compound concentration 1000.0 nM
[6] = target: Ephrin type-B receptor 3 (Homo sapiens) (UniProt P54753); settings: Compound concentration 1000.0 nM
[7] = target: Serine/threonine-protein kinase TNNI3K (Homo sapiens) (UniProt Q59H18); settings: Compound concentration 1000.0 nM
[8] = test system: Mast/stem cell growth factor receptor Kit (Homo sapiens), P10721 [A829P]; settings: Compound concentration 1000.0 nM
[9] = target: Ephrin type-A receptor 7 (Homo sapiens) (UniProt Q15375); settings: Compound concentration 1000.0 nM
[10] = target: Vascular endothelial growth factor receptor 3 (Homo sapiens) (UniProt P35916); settings: Compound concentration 1000.0 nM
[11] = target: Cyclin-dependent kinase 11A (Homo sapiens) (UniProt Q9UQ88); settings: Compound concentration 1000.0 nM
[12] = target: Cyclin-dependent kinase-like 5 (Homo sapiens) (UniProt O76039); settings: Compound concentration 1000.0 nM
[13] = species: Rattus norvegicus; settings: Compound concentration 10.0 uM
[14] = target: Ribosomal protein S6 kinase alpha-4 (Homo sapiens) (UniProt O75676); settings: Compound concentration 1000.0 nM
[15] = target: D(2) dopamine receptor (Homo sapiens) (UniProt P14416); settings: Compound concentration 10.0 uM
[16] = target: Dual specificity mitogen-activated protein kinase kinase 7 (Homo sapiens) (UniProt O14733); settings: Compound concentration 1000.0 nM
[17] = target: Mitogen-activated protein kinase 11 (Homo sapiens) (UniProt Q15759); settings: Compound concentration 1000.0 nM
[18] = target: Calcium/calmodulin-dependent protein kinase type 1G (Homo sapiens) (UniProt Q96NX5); settings: Compound concentration 1000.0 nM
[19] = target: Serine/threonine-protein kinase MRCK alpha (Homo sapiens) (UniProt Q5VT25); settings: Compound concentration 1000.0 nM
[20] = target: Kappa-type opioid receptor (Homo sapiens, UniProt P41145); assay: GPCRScan assay: inhibition of KOR; parameters: radioligand conc. used [nm] 0.6 – 1.2, parental cells stable HEK
[21] = target: Serine/threonine-protein kinase Nek11 (Homo sapiens) (UniProt Q8NG66); settings: Compound concentration 1000.0 nM
[22] = target: BMP-2-inducible protein kinase (Homo sapiens) (UniProt Q9NSY1); settings: Compound concentration 1000.0 nM
[23] = target: Macrophage colony-stimulating factor 1 receptor (Homo sapiens) (UniProt P07333); settings: Compound concentration 1000.0 nM
[24] = target: Non-receptor tyrosine-protein kinase TYK2 (Homo sapiens) (UniProt P29597); settings: Compound concentration 1000.0 nM
[25] = target: Serine/threonine-protein kinase Sgk3 (Homo sapiens) (UniProt Q96BR1); settings: Compound concentration 1000.0 nM
[26] = target: Cyclin-dependent kinase 9 (Homo sapiens) (UniProt P50750); settings: Compound concentration 1000.0 nM
[27] = target: Vascular endothelial growth factor receptor 1 (Homo sapiens) (UniProt P17948); settings: Compound concentration 1000.0 nM
[28] = target: Mitogen-activated protein kinase kinase kinase kinase 5 (Homo sapiens) (UniProt Q9Y4K4); settings: Compound concentration 1000.0 nM
[29] = target: Serine/threonine-protein kinase NLK (Homo sapiens) (UniProt Q9UBE8); settings: Compound concentration 1000.0 nM
[30] = test system: Tyrosine-protein kinase ABL1 (Homo sapiens), P00519 [T315I]; settings: Compound concentration 1000.0 nM
[31] = target: Bone morphogenetic protein receptor type-2 (Homo sapiens) (UniProt Q13873); settings: Compound concentration 1000.0 nM
[32] = target: Vascular endothelial growth factor receptor 2 (Homo sapiens) (UniProt P35968); settings: Compound concentration 1000.0 nM
[33] = target: 5-hydroxytryptamine receptor 1E (Homo sapiens) (UniProt P28566); settings: Compound concentration 10.0 uM
[34] = target: Serine/threonine-protein kinase NIM1 (Homo sapiens) (UniProt Q8IY84); settings: Compound concentration 1000.0 nM
[35] = target: Cyclin-dependent kinase 5 (Homo sapiens) (UniProt Q00535); settings: Compound concentration 1000.0 nM
[36] = target: Calcium/calmodulin-dependent protein kinase kinase 1 (Homo sapiens) (UniProt Q8N5S9); settings: Compound concentration 1000.0 nM
[37] = target: Aurora kinase C (Homo sapiens) (UniProt Q9UQB9); settings: Compound concentration 1000.0 nM
[38] = target: Serine/threonine-protein kinase WNK4 (Homo sapiens) (UniProt Q96J92); settings: Compound concentration 1000.0 nM
[39] = target: Mitogen-activated protein kinase kinase kinase kinase 3 (Homo sapiens) (UniProt Q8IVH8); settings: Compound concentration 1000.0 nM
[40] = target: Receptor-interacting serine/threonine-protein kinase 1 (Homo sapiens) (UniProt Q13546); settings: Compound concentration 1000.0 nM
[41] = target: Phosphatidylinositol 5-phosphate 4-kinase type-2 beta (Homo sapiens) (UniProt P78356); settings: Compound concentration 1000.0 nM
[42] = target: Cyclin-dependent kinase 14 (Homo sapiens) (UniProt O94921); settings: Compound concentration 1000.0 nM
[43] = target: Serine/threonine-protein kinase MARK1 (Homo sapiens) (UniProt Q9P0L2); settings: Compound concentration 1000.0 nM
[44] = test system: Tyrosine-protein kinase ABL1 (Homo sapiens), P00519 [F317L]; settings: Compound concentration 1000.0 nM
[45] = target: Interleukin-1 receptor-associated kinase 3 (Homo sapiens) (UniProt Q9Y616); settings: Compound concentration 1000.0 nM
[46] = test system: Mast/stem cell growth factor receptor Kit (Homo sapiens), P10721 [D816H]; settings: Compound concentration 1000.0 nM

Chain of Tyrosine-protein kinase Yes (Homo sapiens) (P07947 2-543 limits assumed): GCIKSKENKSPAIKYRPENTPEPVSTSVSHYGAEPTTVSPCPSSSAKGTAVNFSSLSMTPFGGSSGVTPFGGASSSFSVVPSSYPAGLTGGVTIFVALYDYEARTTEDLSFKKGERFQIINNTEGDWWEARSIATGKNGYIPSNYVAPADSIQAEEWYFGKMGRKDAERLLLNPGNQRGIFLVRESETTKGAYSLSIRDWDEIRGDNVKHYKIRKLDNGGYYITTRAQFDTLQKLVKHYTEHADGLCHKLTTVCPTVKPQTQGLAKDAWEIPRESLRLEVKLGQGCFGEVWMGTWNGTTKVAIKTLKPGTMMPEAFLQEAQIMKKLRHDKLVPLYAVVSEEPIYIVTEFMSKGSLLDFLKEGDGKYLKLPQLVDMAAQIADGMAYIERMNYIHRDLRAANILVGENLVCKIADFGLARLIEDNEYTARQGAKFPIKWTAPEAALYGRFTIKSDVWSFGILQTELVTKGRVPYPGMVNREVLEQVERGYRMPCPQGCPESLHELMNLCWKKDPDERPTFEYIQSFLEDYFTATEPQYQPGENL
Chain of Serine/threonine-protein kinase NLK (Homo sapiens) (Q9UBE8 whole entry): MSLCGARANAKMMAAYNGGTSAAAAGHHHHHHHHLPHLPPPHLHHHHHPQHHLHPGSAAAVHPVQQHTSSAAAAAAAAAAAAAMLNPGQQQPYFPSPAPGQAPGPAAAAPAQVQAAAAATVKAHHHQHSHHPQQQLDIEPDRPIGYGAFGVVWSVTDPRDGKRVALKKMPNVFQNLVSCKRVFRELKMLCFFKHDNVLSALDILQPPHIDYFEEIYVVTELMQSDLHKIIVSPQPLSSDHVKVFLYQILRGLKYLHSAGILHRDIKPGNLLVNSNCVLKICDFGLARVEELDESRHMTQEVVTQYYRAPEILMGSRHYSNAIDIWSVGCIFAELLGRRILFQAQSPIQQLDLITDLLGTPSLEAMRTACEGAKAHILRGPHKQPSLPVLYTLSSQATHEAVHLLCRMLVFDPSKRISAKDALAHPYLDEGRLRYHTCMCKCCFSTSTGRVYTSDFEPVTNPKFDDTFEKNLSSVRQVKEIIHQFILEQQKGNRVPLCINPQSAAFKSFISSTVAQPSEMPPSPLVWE
Chain of Receptor-interacting serine/threonine-protein kinase 1 (Homo sapiens) (Q13546 whole entry): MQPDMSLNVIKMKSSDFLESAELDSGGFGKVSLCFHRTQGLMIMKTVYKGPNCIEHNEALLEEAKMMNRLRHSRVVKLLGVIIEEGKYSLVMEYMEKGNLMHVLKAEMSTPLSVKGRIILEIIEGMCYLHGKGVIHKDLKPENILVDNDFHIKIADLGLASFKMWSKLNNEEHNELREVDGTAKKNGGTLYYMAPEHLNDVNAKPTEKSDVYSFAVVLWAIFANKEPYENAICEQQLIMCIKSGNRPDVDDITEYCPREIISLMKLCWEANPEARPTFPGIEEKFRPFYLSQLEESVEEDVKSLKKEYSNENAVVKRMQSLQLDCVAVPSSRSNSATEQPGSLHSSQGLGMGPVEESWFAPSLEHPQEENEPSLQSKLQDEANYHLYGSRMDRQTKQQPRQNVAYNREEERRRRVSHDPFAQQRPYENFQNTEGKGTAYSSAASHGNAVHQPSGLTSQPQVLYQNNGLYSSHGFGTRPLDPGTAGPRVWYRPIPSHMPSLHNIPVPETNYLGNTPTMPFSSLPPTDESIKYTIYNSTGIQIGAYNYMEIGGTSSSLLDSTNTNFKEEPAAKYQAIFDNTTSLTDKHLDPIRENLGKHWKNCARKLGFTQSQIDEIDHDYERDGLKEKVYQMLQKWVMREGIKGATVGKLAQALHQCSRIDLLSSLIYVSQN
Chain of BMP-2-inducible protein kinase (Homo sapiens) (Q9NSY1 whole entry, looked up): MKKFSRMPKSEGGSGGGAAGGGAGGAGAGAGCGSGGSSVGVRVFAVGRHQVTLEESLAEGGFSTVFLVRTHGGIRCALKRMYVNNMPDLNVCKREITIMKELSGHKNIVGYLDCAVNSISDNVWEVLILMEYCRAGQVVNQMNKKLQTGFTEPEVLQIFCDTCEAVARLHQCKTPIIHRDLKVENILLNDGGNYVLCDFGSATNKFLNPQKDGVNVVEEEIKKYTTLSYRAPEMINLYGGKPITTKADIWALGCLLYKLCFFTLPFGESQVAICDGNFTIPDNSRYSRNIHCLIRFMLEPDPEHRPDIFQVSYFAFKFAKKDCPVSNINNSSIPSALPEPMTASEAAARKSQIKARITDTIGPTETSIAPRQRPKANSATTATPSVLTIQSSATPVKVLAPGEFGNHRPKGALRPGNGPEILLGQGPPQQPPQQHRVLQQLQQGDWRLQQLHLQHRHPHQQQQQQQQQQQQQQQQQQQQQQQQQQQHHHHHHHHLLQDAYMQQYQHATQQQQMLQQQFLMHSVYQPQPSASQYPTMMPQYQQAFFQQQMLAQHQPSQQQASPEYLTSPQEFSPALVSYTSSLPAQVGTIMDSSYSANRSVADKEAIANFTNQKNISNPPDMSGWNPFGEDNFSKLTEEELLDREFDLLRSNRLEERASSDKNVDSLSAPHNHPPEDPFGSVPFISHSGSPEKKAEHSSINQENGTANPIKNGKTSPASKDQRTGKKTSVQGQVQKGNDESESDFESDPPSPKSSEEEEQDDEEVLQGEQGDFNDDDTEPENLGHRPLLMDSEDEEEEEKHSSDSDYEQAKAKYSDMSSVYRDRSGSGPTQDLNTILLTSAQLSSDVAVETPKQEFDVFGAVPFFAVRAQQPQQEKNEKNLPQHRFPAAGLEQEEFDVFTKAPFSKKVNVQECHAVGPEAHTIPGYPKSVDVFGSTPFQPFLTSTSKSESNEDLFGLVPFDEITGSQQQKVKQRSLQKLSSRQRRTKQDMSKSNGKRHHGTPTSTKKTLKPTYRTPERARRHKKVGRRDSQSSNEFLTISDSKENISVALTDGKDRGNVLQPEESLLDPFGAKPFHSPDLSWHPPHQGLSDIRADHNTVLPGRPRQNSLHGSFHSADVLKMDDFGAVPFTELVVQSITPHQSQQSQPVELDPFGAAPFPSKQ
Chain of Cyclin-dependent kinase 5 (Homo sapiens) (Q00535 whole entry, looked up): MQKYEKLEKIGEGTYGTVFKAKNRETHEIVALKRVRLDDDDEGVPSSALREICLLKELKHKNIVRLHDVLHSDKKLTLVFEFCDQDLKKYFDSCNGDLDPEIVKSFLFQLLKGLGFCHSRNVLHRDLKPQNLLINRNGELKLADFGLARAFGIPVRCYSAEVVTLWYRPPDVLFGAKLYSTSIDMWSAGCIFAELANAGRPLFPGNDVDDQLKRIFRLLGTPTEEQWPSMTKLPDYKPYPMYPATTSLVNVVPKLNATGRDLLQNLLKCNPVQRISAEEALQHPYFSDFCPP
Chain of Mitogen-activated protein kinase kinase kinase kinase 3 (Homo sapiens) (Q8IVH8 whole entry): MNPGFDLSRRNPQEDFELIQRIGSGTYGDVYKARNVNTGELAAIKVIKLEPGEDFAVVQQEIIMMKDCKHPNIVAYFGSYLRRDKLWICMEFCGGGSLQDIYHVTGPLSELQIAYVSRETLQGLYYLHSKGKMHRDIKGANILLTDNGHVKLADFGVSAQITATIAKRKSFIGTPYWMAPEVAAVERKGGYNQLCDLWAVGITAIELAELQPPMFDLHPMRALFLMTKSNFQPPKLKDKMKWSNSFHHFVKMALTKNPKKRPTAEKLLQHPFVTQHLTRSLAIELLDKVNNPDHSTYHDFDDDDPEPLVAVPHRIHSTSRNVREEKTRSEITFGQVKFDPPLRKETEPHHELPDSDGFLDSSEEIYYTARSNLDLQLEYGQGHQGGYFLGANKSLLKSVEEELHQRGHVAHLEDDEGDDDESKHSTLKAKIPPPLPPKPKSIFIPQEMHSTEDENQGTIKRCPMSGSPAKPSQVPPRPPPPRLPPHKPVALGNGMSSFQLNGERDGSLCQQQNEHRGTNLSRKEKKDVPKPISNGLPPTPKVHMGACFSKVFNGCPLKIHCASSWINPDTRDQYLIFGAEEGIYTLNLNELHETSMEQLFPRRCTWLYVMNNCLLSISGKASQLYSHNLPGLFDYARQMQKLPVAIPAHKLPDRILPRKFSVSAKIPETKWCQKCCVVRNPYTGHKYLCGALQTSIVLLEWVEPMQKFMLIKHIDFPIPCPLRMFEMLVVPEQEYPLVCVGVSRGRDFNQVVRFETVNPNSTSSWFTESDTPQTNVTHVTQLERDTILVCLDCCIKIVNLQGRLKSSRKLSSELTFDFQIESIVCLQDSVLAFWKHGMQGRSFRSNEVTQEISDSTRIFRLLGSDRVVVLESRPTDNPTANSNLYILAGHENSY
Chain of Testis-specific serine/threonine-protein kinase 3 (Homo sapiens) (Q96PN8 whole entry): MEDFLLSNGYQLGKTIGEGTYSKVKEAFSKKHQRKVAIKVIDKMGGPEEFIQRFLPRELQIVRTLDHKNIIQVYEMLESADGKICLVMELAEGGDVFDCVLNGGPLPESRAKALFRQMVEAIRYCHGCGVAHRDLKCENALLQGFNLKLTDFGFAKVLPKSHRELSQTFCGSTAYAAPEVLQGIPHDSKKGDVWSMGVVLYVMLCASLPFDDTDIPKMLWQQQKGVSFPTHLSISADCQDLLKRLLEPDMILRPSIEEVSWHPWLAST
Chain of Serine/threonine-protein kinase Nek11 (Homo sapiens) (Q8NG66 whole entry): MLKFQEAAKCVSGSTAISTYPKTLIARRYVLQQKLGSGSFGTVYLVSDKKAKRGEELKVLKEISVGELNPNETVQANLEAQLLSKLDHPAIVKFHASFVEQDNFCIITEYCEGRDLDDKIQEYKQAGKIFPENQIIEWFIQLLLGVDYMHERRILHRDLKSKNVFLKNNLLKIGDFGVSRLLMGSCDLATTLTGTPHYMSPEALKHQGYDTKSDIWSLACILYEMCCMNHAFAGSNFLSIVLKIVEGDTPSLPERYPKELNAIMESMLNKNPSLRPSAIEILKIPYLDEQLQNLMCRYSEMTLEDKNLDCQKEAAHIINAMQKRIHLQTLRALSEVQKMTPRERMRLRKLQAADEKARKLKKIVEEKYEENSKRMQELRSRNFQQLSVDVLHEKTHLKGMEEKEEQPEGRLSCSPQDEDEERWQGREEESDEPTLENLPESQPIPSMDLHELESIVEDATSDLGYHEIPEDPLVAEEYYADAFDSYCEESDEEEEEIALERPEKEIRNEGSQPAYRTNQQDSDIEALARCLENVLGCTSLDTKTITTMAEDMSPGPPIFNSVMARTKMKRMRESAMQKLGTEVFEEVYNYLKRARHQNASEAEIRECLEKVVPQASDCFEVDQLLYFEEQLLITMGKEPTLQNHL

## O=C(Nc1ccc(Oc2ccc(F)cc2)cc1)N1CCc2ncccc2[C@H]1c1ccc(F)cc1 [BAY-897]
[1]
  residual activity: 100%
[2]
  residual activity: 79%
[3]
  residual activity: 89%
[4]
  residual activity: 98%
[5]
  residual activity: 82%
[6]
  residual activity: 100%
[7]
  residual activity: 100%
[8]
  residual activity: 100%
[9]
  residual activity: 90%
[10]
  residual activity: 96%
[11]
  residual activity: 92%
[12]
  residual activity: 100%
[13]
  inhibition: 33.4%
[14]
  residual activity: 73%
[15]
  inhibition: -3.97%
[16]
  residual activity: 100%
[17]
  residual activity: 100%
[18]
  residual activity: 100%
[19]
  residual activity: 94%
[20]
  Ki: 3.13 µM
[21]
  residual activity: 100%
[22]
  residual activity: 94%
[23]
  residual activity: 90%
[24]
  residual activity: 95%
[25]
  residual activity: 97%
[26]
  residual activity: 87%
[27]
  residual activity: 100%
[28]
  residual activity: 91%
[29]
  residual activity: 87%
[30]
  residual activity: 85%
[31]
  residual activity: 96%
[32]
  residual activity: 100%
[33]
  inhibition: 1.61%
[34]
  residual activity: 80%
[35]
  residual activity: 100%
[36]
  residual activity: 99%
[37]
  residual activity: 87%
[38]
  residual activity: 85%
[39]
  residual activity: 90%
[40]
  residual activity: 100%
[41]
  residual activity: 97%
[42]
  residual activity: 94%
[43]
  residual activity: 81%
[44]
  residual activity: 86%
[45]
  residual activity: 100%
[46]
  residual activity: 89%

## O=C(Nc1cnc(Oc2ccc(F)cc2)nc1)N1CCc2ncccc2[C@@H]1c1ccc(F)cc1 [BAY-899]
[1]
  residual activity: 98%
[2]
  residual activity: 82%
[3]
  residual activity: 94%
[4]
  residual activity: 86%
[5]
  residual activity: 77%
[6]
  residual activity: 100%
[7]
  residual activity: 100%
[8]
  residual activity: 100%
[9]
  residual activity: 88%
[10]
  residual activity: 96%
[11]
  residual activity: 91%
[12]
  residual activity: 89%
[13]
  inhibition: 44.6%
[14]
  residual activity: 89%
[15]
  inhibition: 1.65%
[16]
  residual activity: 95%
[17]
  residual activity: 84%
[18]
  residual activity: 97%
[19]
  residual activity: 96%
[20]
  Ki: 7.63 µM
[21]
  residual activity: 100%
[22]
  residual activity: 93%
[23]
  residual activity: 78%
[24]
  residual activity: 97%
[25]
  residual activity: 100%
[26]
  residual activity: 93%
[27]
  residual activity: 88%
[28]
  residual activity: 77%
[29]
  residual activity: 73%
[30]
  residual activity: 77%
[31]
  residual activity: 88%
[32]
  residual activity: 88%
[33]
  inhibition: -8.08%
[34]
  residual activity: 90%
[35]
  residual activity: 100%
[36]
  residual activity: 92%
[37]
  residual activity: 81%
[38]
  residual activity: 81%
[39]
  residual activity: 87%
[40]
  residual activity: 99%
[41]
  residual activity: 100%
[42]
  residual activity: 100%
[43]
  residual activity: 71%
[44]
  residual activity: 83%
[45]
  residual activity: 100%
[46]
  residual activity: 96%
